Literature values in patent US6413950B1, “Pharmaceutical preparation containing dithranol” (esparma GmbH, priority 1999, dated 2002).

Conditions: background statement on the active agent dithranol

**Q.** With `O=C1c2c(O)cccc2Cc2cccc(O)c21` [Dithranol] as the compound, how does the solubility in water read?
**A.** not soluble in water
